From the METLIN SMRT retention time set (Domingo-Almenara et al. 2019) come the findings set out here.

Each structure is given as a SMILES string.

This data set in a line: gradient 5% acetonitrile 3 min, to 50% in 2 min, to 85% in 15 min, held 3 min, 100 µL/min. The settings on record: column: Zorbax Extend-C18 2.1 x 50 mm; eluents: water / acetonitrile, 0.1% formic acid. In a few lines:
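Pure standards were analyzed in mixtures of ~100 molecules using HPLC coupled to a quadrupole time-of-flight mass spectrometer, in both positive and negative ionization mode. Separation used a Zorbax Extend-C18 column (2.1 × 50 mm, 1.8 μm) at 100 μL/min, with water and acetonitrile each containing 0.1% formic acid. Dead and dwell volumes were 40 μL and 900 μL, and data were collected over 3 months. Retention time was read from computationally picked adduct peaks, each inspected manually.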
As for `CCCn1nnc(NCc2ccc(-c3cc(Cl)ccc3Cl)o2)n1`, the RP-LC retention time worked out at 1180 s. `CCCn1ccc2sc(C)c(C(=O)NC(C)c3ccc(F)cc3)c2c1=O` (centres undefined) came in with an RP-LC retention time of 994 s.

For the compound `O=C(NCc1cccc(Cl)c1)c1c(O)c2cccnc2[nH]c1=O`, the RP-LC retention time worked out at 954 s.

As for `COCCC1CCN(C(=O)CN(C)C(=O)c2cccn2C)CC1`, the RP-LC retention time turned out to be 670 s. As for `CCCn1cc(CCNC(=O)Nc2ccc(C)cc2Cl)c2cccnc21`, the figure is 886 s; as for `CCOc1ccccc1NC(=O)CN1C(=O)CC(c2cccs2)=Nc2ccccc21`, 1050 s; as for `CN(C)c1cc(-n2cnc(C(=O)NCc3ccccc3Cl)c2)ncn1`, 813 s. As for `COc1ccc(S(=O)(=O)N2CCCC(C(=O)N3CCOCC3)C2)cc1Cl` (centres undefined), the figure is 766 s; as for `Cc1cccc(NC(=O)Cn2nc(C(=O)N3CCOCC3)c3ccccc32)c1C`, 819 s; as for `O=C(Nc1ccc(C2=NCCCN2)cc1)Nc1ccc(C2=NCCCN2)cc1`, 581 s. As for `CN(CC1CCOC1)C(=O)Nc1ccc(F)c(Cl)c1` (centres undefined), the figure is 709 s. `COc1cc([C@@H]2c3cc4c(cc3[C@H](O)[C@@H](CO)[C@@H]2C(=O)NCc2ccccc2)OCO4)cc(OC)c1OC` had an RP-LC retention time of 700 s. As for `COC(=O)c1sccc1NC(=O)C1CCCN(c2ncnc3c2nc2n3CCCCC2)C1` (centres undefined), the figure is 922 s; as for `COCCCNC(=O)Cn1c(=O)n(-c2ccc(C)cc2)c2ncccc21`, 692 s; as for `Cc1cccc(N2CCN(C(=O)C3CCN(S(=O)(=O)c4cn(C)c(C)n4)CC3)CC2C)c1` (centres undefined), 667 s. The figure for `O=C(NCc1cccnc1-c1ccc(F)cc1)c1cc(F)cc(F)c1` is 710 s; for `CCN(CC)CCCNC(=O)C(C)n1nc(C)c2c(C)n(-c3ccccc3)nc2c1=O` (centres undefined) it is 621 s; for `CC(C)(C)NC[C@H](O)COc1cccc2[nH]c(C#N)cc12` it is 663 s. The figure for `CCC(CC)c1nnc(NC(=O)C2CC(=O)N(CCc3c[nH]c4ccc(C)cc34)C2)s1` (centres undefined) is 856 s; for `CCn1cc(-c2nc(CC(=O)NCc3ccccc3)cs2)c2cccnc21` it is 840 s; for `Cn1cccc1C(=O)N1CCC2(CC1)NC(=O)N(Cc1ccccc1Cl)C2=O` it is 790 s. `Cc1cccc(NC(=O)Nc2nc(C)c(C(=O)NCc3ccc4c(c3)OCO4)s2)c1` displayed an RP-LC retention time of 1020 s.

Regarding `CCCn1c(=O)sc2cc(S(=O)(=O)N3CCC(C(=O)NC4CCCCC4)CC3)ccc21`, the RP-LC retention time stood at 967 s. As for `COc1ccc(OC)c(C(C)NC(=O)C2CCCN(c3nccnc3Oc3ccccc3)C2)c1` (centres undefined), the figure is 998 s.

The compound `CCc1ccc(S(=O)(=O)N2CCc3nc(-c4ccc(OC)cc4)ncc3C2)cc1` showed an RP-LC retention time of 1140 s. The figure for `COc1ccc(-c2cc3nn(CC(=O)N4CCCC(C)C4)c(=O)n3c(C)n2)cc1` (centres undefined) is 902 s; for `CCNC(=O)N1CCCC(c2cccc(C(=O)NCCN3CCOCC3)c2)C1` (centres undefined) it is 577 s; for `c1ccc(COCC2CCN(Cc3ccccc3)CC2)cc1` it is 588 s. The figure for `O=C(CSc1nccn1Cc1ccco1)Nc1ccccc1F` is 600 s. As for `O=c1n(Cc2ccccc2Cl)nc2c(S(=O)(=O)N3CCCC3)cccn12`, the figure is 853 s; as for `CC(C)n1cnc2cc(CNC(=O)c3ccc(C#N)cc3)ccc21`, 619 s. With `COc1ccc(NC(=O)C2CCN(S(C)(=O)=O)c3cc(Cl)ccc3O2)cc1` (centres undefined), the RP-LC retention time amounted to 918 s. The figure for `CCOC(=O)c1c(C)[nH]c(C(=O)N2CCCC(C(=O)NCc3ccco3)C2)c1C` (centres undefined) is 722 s.

`COc1ccc(-c2c(C)noc2NC(C)=O)cc1S(=O)(=O)Nc1ccc(C)cc1Br` registered an RP-LC retention time of 832 s. Consider `Cn1ncc(Cl)c1C(=O)N1CCCC1c1cccc(F)c1` (centres undefined), for which the RP-LC retention time turned out to be 813 s.

Turning to `CC(C)CC(=O)Nc1ccc(-c2nc(-c3ccc(Cl)cc3)no2)cc1`, the RP-LC retention time turned out to be 1310 s. As for `COc1ccccc1C1=NS(=O)(=O)c2cc(S(=O)(=O)N3CCOCC3)ccc2N1`, the figure is 718 s; as for `COC(=O)c1sccc1NC(=O)Nc1cccn2c(C3CCC3)nnc12`, 884 s; as for `CO[C@H]1C(=O)N(C(C)C)[C@H]1C1CCN(S(=O)(=O)c2cccc(F)c2)CC1`, 860 s. As for `COc1cccc(CNC(=O)c2cc(NC(C)=O)cc3nc(C)ccc23)c1OC`, the figure is 594 s; as for `CCOC(=O)N1CCN(c2nnc(SCC(=O)NCc3ccco3)s2)CC1`, 668 s; as for `Cc1nc(C)c(C(=O)N2CCC(Oc3nc4c(C)ccc(C)c4s3)CC2)s1`, 1090 s. The figure for `O=C(CCC1CCCC1)Nc1ccc(CC(=O)NC2CC2)cc1` is 738 s. In the case of `Cc1cnn(CC(=O)N2CCCCCCNC(=O)[C@@H]3CCCC[C@@H]32)c1`, the RP-LC retention time was determined as 716 s. For `COc1ccc(Cl)cc1NS(=O)(=O)c1ccc2c(c1)C(=O)N(C)c1ncccc1O2`, the RP-LC retention time came out at 958 s.

With `CCn1cc(CCNC(=O)Nc2cccc(OC)c2)c2cccnc21`, the RP-LC retention time amounted to 733 s. The figure for `O=C(c1ccccc1F)N1CCCn2cc(-c3ccccc3F)nc21` is 792 s; for `COc1ccc(N2C(=O)C3N=NN(Cc4nc(-c5ccc(C)cc5)no4)C3C2=O)cc1` (centres undefined) it is 992 s; for `COc1ccc(S(=O)(=O)N2CCCC2)cc1C(=O)NC1CCS(=O)(=O)C1` (centres undefined) it is 629 s. As for `COc1ccc(-c2noc(CNC(=O)c3cc(C)nc4ccccc34)n2)cc1OC`, the figure is 652 s; as for `CCC(=O)N1CCc2cc(N3CC(C(=O)Nc4cccc(F)c4C)CC3=O)ccc21` (centres undefined), 801 s; as for `CCCNC(=O)c1ncn2c1C(=O)N(C1CC1)C(C)(C(=O)NCc1ccccc1Cl)C2` (centres undefined), 722 s. The figure for `O=C1CCCC(=O)N1CCS(=O)(=O)NCC1(c2ccccc2)CCOCC1` is 678 s; for `COc1cc2c(cc1OC)C(C(=O)N1CCN(C)CC1)C(c1ccc(SC)cc1)N(C)C2=O` (centres undefined) it is 612 s.

Turning to `Cc1ccc(N2CC(C(=O)NCC(=O)N3CCCc4ccccc43)CC2=O)cc1C` (centres undefined), the RP-LC retention time worked out at 822 s. Regarding `COc1ccc(-c2ccc3nc(N4CCC(C(=O)NCCN(C)C)CC4)sc3n2)cc1`, the RP-LC retention time was 665 s.

For the compound `Cc1c(Cl)cccc1NC(=O)Cn1nc(C(=O)N2CCCCC2)c2ccccc21`, the RP-LC retention time turned out to be 917 s. As for `O=C(CN1CCN(C(=O)Nc2ccc(Br)cc2)CC1=O)NCc1ccccn1`, the figure is 615 s; as for `CCOC(=O)C1CCN(S(=O)(=O)c2cccc(-c3cn4ccccc4n3)c2)CC1`, 676 s.
